Laboratory results reported in ChEMBL document CHEMBL3397006, “Synthesis and evaluation of the diarylthiourea analogs as novel anti-cancer agents” (Bioorg Med Chem Lett, 2015).
The source made the active and inactive calls. No cut-off for these calls is given here.

How the values were obtained:
MDA-MB-453 [1] = test: Cytotoxicity against human MDA-MB-453 cells assessed as reduction in cell viability after 48 hrs by MTT assay; type: functional; settings: MDA-MB-453, 48 h
LNCaP [2] = test: Cytotoxicity against human LNCAP cells assessed as reduction in cell viability after 48 hrs by MTT assay; type: functional
MCF7 [3] = test: Cytotoxicity against human MCF7 cells assessed as reduction in cell viability after 48 hrs by MTT assay; type: functional; settings: MCF7, 48 h
DU-145 [4] = test: Cytotoxicity against human DU145 cells assessed as reduction in cell viability after 48 hrs by MTT assay; type: functional; settings: DU-145, 48 h
[5] = Cytotoxicity against human PC3 cells assessed as reduction in cell viability after 48 hrs by MTT assay; type: functional; settings: PC-3, 48 h
T47D [6] = test: Cytotoxicity against human T47D cells assessed as reduction in cell viability after 48 hrs by MTT assay; type: functional
Toxicity in dog = settings: in vivo
[7] = Systemic bioavailability in rat; type: ADME, organism-based; settings: in vivo
DU-145 [8] = test: Growth inhibition of human DU145 cells; type: functional
[9] = Growth inhibition of human PC3 cells; type: functional; settings: PC-3
MCF7 [10] = test: Growth inhibition of human MCF7 cells; type: functional
MDA-MB-453 [11] = test: Growth inhibition of human MDA-MB-453 cells; type: functional
T47D [12] = test: Growth inhibition of human T47D cells; type: functional
[13] = Protein binding in plasma (unknown origin); type: ADME, cell-free; settings: read-out: PPB (converted)
LNCaP [14] = test: Selectivity index, ratio of GI50 for human DU145 cells to GI50 for human LNCAP cells; type: functional
LNCaP [15] = test: Selectivity index, ratio of GI50 for human PC3 cells to GI50 for human LNCAP cells; type: functional
LNCaP [16] = test: Growth inhibition of human LNCAP cells at 0.5 to 20 uM after 4 days by […] assay
MDA-MB-453 [17] = test: Growth inhibition of human MDA-MB-453 cells at 0.5 to 20 uM after 4 days by MTT assay; type: functional, cell-based
MCF7 [18] = test: Growth inhibition of human MCF7 cells at 0.5 to 20 uM after 4 days by MTT assay; type: functional, cell-based
T47D [19] = test: Growth inhibition of human T47D cells at 0.5 to 20 uM after 4 days by MTT assay; type: functional, cell-based

Structure (SMILES)	GI50 (MDA-MB-453 [1]) [µM]	GI50 (LNCaP [2]) [µM]	GI50 (MCF7 [3]) [µM]	GI50 (DU-145 [4]) [µM]	GI50 [5] [µM]	GI50 (T47D [6]) [µM]	NOAEL (Toxicity in dog) [mg/kg]	bioavailability [7] [%]	GI50 (DU-145 [8]) [µM]	GI50 [9] [µM]	GI50 (MCF7 [10]) [µM]	GI50 (MDA-MB-453 [11]) [µM]	GI50 (T47D [12]) [µM]	fraction unbound [13]	Selectivity Index (LNCaP [14])	Selectivity Index (LNCaP [15])	growth inhibition (GI) (LNCaP [16])	growth inhibition (GI) (MDA-MB-453 [17])	growth inhibition (GI) (MCF7 [18])	growth inhibition (GI) (T47D [19])
O=[N+]([O-])c1ccc(NC(=S)Nc2ccc3c(c2)Cc2cc(Br)ccc2-3)cc1	6.2	11.3	7.81	17.5	16.5	3.96	–	–	–	–	–	–	–	–	–	–	–	–	–	–
O=[N+]([O-])c1ccc(NC(=S)Nc2ccc3sccc3c2)cc1	> 50	23.5	> 50	> 50	> 50	15.3	–	–	–	–	–	–	–	–	–	–	–	–	–	–
CC1=C(/C=C/C(C)=C/C=C/C(C)=C/C(=O)O)C(C)(C)CCC1 [TRETINOIN]	9.51	10.3	12.4	11.6	12.6	0.82	–	–	–	–	–	–	–	–	–	–	–	–	–	–
Cc1cc(=O)oc2cc(NC(=S)Nc3ccc([N+](=O)[O-])cc3)ccc12	> 50	> 50	9.89	> 50	> 50	> 50	–	–	–	–	–	–	–	–	–	–	–	–	–	–
Cc1ccc(NC(=S)Nc2ccc([N+](=O)[O-])cc2)cc1C	13.5	10.6	17	35.1	26.8	8.14	–	–	–	–	–	–	–	–	–	–	–	–	–	–
O=[N+]([O-])c1ccc(NC(=S)Nc2cc3ccccc3c3ccccc23)cc1	14.5	7.29	13.3	6.11	19.3	11.6	–	–	–	–	–	–	–	–	–	–	–	–	–	–
O=c1oc2ccc(NC(=S)Nc3ccc([N+](=O)[O-])cc3)cc2c2ccccc12	27.6	12.8	13.1	24.1	22.6	8.68	–	–	–	–	–	–	–	–	–	–	–	–	–	–
CC1(C)CC(C)(C)c2cc(NC(=S)Nc3ccc([N+](=O)[O-])cc3)ccc2S1 [SHETA-2]	3.27	2.25	4.13	3.47	4.8	3.99	> 1500	< 1	4.9	5	4.5	5	4.8	0.007	–	–	–	–	–	–
CCn1c2ccccc2c2cc(NC(=S)Nc3ccc([N+](=O)[O-])cc3)ccc21	6.88	5.86	12.8	5.87	19.6	9.44	–	–	–	–	–	–	–	–	–	–	–	–	–	–
CC(NC(=S)Nc1ccc([N+](=O)[O-])cc1)c1cccc2ccccc12 (stereo not drawn)	6.27	6.05	6.21	13.7	13.9	2.94	–	–	–	–	–	–	–	–	2	2	–	–	–	–
O=[N+]([O-])c1ccc(NC(=S)Nc2cc3c4ccccc4ccc3c3ccccc23)cc1	4.77	3.54	3.16	21.8	20	2.53	–	–	–	–	–	–	–	–	6	6	Active	Active	Active	Active
Cc1cc2cc(NC(=S)Nc3ccc([N+](=O)[O-])cc3)ccc2[nH]1	> 50	40.5	> 50	> 50	> 50	21.6	–	–	–	–	–	–	–	–	–	–	–	–	–	–
